According to patent publication EP0238178B1, “Novel derivatives of erythromycylamine” (ELI LILLY AND COMPANY, priority 1986, dated 1987):
Values after ≈ are worked out from the molar mass of the structure shown.

How the values were obtained:
[1] = test system: Staphylococcus aureus X1.1; test: MIC, standard agar-dilution assay; format: cell-based; conditions: read-out: MIC
[2] = test system: Staphylococcus aureus V41; test: MIC, standard agar-dilution assay; format: cell-based; conditions: Staphylococcus aureus V41, Penicillin-resistant strain, inducibly-resistant to erythromycin; read-out: MIC
Text: (§1) In addition to excellent in vitro activity against erythromycin-sensitive bacteria, several members of this new series have shown in vitro activity against erythromycin-resistant strains. These include strains which are inducibly-resistant to erythromycin (S.. aureus V41 and X400 and S. epidermidis EPI1) and even strains which are constitutively-resistant (S. epidermidis 270).

[3] = test system: Staphylococcus aureus X400; test: MIC, standard agar-dilution assay; format: cell-based; conditions: Staphylococcus aureus X400, Methicillin-resistant strain, inducibly-resistant to erythromycin; read-out: MIC
Text: as §1

[4] = test system: Staphylococcus epidermidis 270; test: MIC, standard agar-dilution assay; format: cell-based; conditions: Staphylococcus epidermidis 270, constitutively-resistant to erythromycin
Text: as §1

[5] = test system: Staphylococcus aureus S13E; test: MIC, standard agar-dilution assay; format: cell-based
[6] = test system: Staphylococcus epidermidis 222; test: MIC, standard agar-dilution assay; format: cell-based; conditions: read-out: MIC
[7] = test system: Streptococcus pyogenes C203; test: MIC, standard agar-dilution assay; format: cell-based; conditions: read-out: MIC
[8] = test system: Streptococcus pneumoniae Park I; test: MIC, standard agar-dilution assay; format: cell-based; conditions: read-out: MIC
[9] = test system: Streptococcus sp. group D X66; test: MIC, standard agar-dilution assay; format: cell-based; conditions: Streptococcus sp. group D X66; read-out: MIC
[10] = test system: Streptococcus sp. group D 2041; test: MIC, standard agar-dilution assay; format: cell-based; conditions: read-out: MIC
[11] = test system: Haemophilus influenzae C.L.; test: MIC, standard agar-dilution assay; format: cell-based; conditions: Ampicillin-sensitive strain, read-out: MIC
Escherichia coli EC14 = test: MIC, standard agar-dilution assay; format: cell-based; conditions: read-out: MIC
Staphylococcus aureus = test: Experimental bacterial infection in mice, ED50; format: in vivo; conditions: Staphylococcus aureus, po, two doses, dose protecting 50% of animals, read-out: Oral ED50
Description: (§2) The new derivatives of this invention have also shown in vivo antimicrobial activity against experimental bacterial infections. When two doses of test compound were administered to mice in experimental infections, the activity observed was measured as an EDso value [effective dose in mg/kg to protect 50% of the test animals: see Warren Wick, et al., J. Bacteriol. 81, 233-235 (1961)].

Streptococcus pneumoniae = test: Experimental bacterial infection in mice, ED50; format: in vivo; conditions: Streptococcus pneumoniae, po, two doses, dose protecting 50% of animals, read-out: Oral ED50
Description: as §2

Streptococcus pyogenes = test: Experimental bacterial infection in mice, ED50; format: in vivo; conditions: Streptococcus pyogenes, po, two doses, dose protecting 50% of animals, read-out: Oral ED50
Description: as §2

[12] = test system: Staphylococcus epidermidis EPI1; test: MIC, standard agar-dilution assay; format: cell-based
Text: as §1

[13] = test system: Haemophilus influenzae 76; test: MIC, standard agar-dilution assay; format: cell-based; conditions: Haemophilus influenzae 76, Ampicillin-resistant strain; read-out: MIC
[14] = test system: Klebsiella pneumoniae X68; test: MIC, standard agar-dilution assay; format: cell-based; conditions: read-out: MIC

SMILES	MIC [1]	MIC [2]	MIC [3]	MIC [4]	MIC [5]	MIC [6]	MIC [7]	MIC [8]	MIC [9]	MIC [10]	MIC [11]	MIC (Escherichia coli EC14)	ED50 (Staphylococcus aureus)	ED50 (Streptococcus pneumoniae)	ED50 (Streptococcus pyogenes)	MIC [12]	MIC [13]	MIC [14]
CCCCC/C=C\CCCN[C@@H]1[C@H](C)[C@@H](O)[C@](C)(O)[C@@H](CC)OC(=O)[C@H](C)[C@@H](O[C@H]2C[C@@](C)(OC)[C@@H](O)[C@H](C)O2)[C@H](C)[C@@H](O[C@@H]2O[C@H](C)C[C@H](N(C)C)[C@H]2O)[C@](C)(O)C[C@H]1C [Compound 13]	0.25 µg/mL (≈ 0.286 µM)	8 µg/mL (≈ 9.16 µM)	8 µg/mL (≈ 9.16 µM)	32 µg/mL (≈ 36.6 µM)	0.25 µg/mL (≈ 0.286 µM)	0.125 µg/mL (≈ 0.143 µM)	< 8 ng/mL	< 8 ng/mL	0.06 µg/mL (≈ 0.0687 µM)	1 µg/mL (≈ 1.15 µM)	2 µg/mL (≈ 2.29 µM)	128 µg/mL (≈ 147 µM)	–	–	–	–	–	–
CCCCC/C=C/CCCN[C@@H]1[C@H](C)[C@@H](O)[C@](C)(O)[C@@H](CC)OC(=O)[C@H](C)[C@@H](O[C@H]2C[C@@](C)(OC)[C@@H](O)[C@H](C)O2)[C@H](C)[C@@H](O[C@@H]2O[C@H](C)C[C@H](N(C)C)[C@H]2O)[C@](C)(O)C[C@H]1C [Compound 14, 9-Deoxo-9-[(trans-dec-4-enyl)amino]erythromycin]	0.5 µg/mL (≈ 0.573 µM)	8 µg/mL (≈ 9.16 µM)	16 µg/mL (≈ 18.3 µM)	32 µg/mL (≈ 36.6 µM)	0.25 µg/mL (≈ 0.286 µM)	0.25 µg/mL (≈ 0.286 µM)	< 8 ng/mL	< 8 ng/mL	0.125 µg/mL (≈ 0.143 µM)	2 µg/mL (≈ 2.29 µM)	2 µg/mL (≈ 2.29 µM)	128 µg/mL (≈ 147 µM)	–	–	–	–	–	–
CC[C@H]1OC(=O)[C@H](C)[C@@H](O[C@H]2C[C@@](C)(OC)[C@@H](O)[C@H](C)O2)[C@H](C)[C@@H](O[C@@H]2O[C@H](C)C[C@H](N(C)C)[C@H]2O)[C@](C)(O)C[C@@H](C)[C@H](NCC#Cc2ccccc2)[C@H](C)[C@@H](O)[C@]1(C)O [Compound 18]	1 µg/mL (≈ 1.18 µM)	16 µg/mL (≈ 18.8 µM)	32 µg/mL (≈ 37.7 µM)	64 µg/mL (≈ 75.4 µM)	0.5 µg/mL (≈ 0.589 µM)	0.5 µg/mL (≈ 0.589 µM)	< 8 ng/mL	< 8 ng/mL	0.25 µg/mL (≈ 0.294 µM)	1 µg/mL (≈ 1.18 µM)	4 µg/mL (≈ 4.71 µM)	–	> 50 mg/kg	33.9 mg/kg	26.7 mg/kg	–	–	–
CC[C@H]1OC(=O)[C@H](C)[C@@H](O[C@H]2C[C@@](C)(OC)[C@@H](O)[C@H](C)O2)[C@H](C)[C@@H](O[C@@H]2O[C@H](C)C[C@H](N(C)C)[C@H]2O)[C@](C)(O)C[C@@H](C)[C@H](N2CCCCC2)[C@H](C)[C@@H](O)[C@]1(C)O [Compound 72, 9-Deoxo-9-(1-piperidinyl)erythromycin]	16 µg/mL (≈ 19.9 µM)	> 128 µg/mL	> 128 µg/mL	–	16 µg/mL (≈ 19.9 µM)	8 µg/mL (≈ 9.96 µM)	1000 ng/mL (≈ 1.25 µM)	1000 ng/mL (≈ 1.25 µM)	4 µg/mL (≈ 4.98 µM)	128 µg/mL (≈ 159 µM)	2 µg/mL (≈ 2.49 µM)	> 128 µg/mL	> 44 mg/kg	20.6 mg/kg	23.6 mg/kg	> 128 µg/mL	64 µg/mL (≈ 79.7 µM)	> 128 µg/mL
